According to US20240287138A1, “CYCLIC PEPTIDES FOR INHIBITING TNF RECEPTOR 1 ACTIVITY” (Merck Sharp & Dohme LLC, priority 2023, published 2024):
Numbered stars: 1 amine (or outer) side, 2 acyl side, 3 side chain; on linkers, the order of the positions; unused ones are H or OH. Bridge positions count the residues as written; N and C are the ends. Square brackets hold non-standard residues; d marks the D form. Peptide text beside a SMILES is read from it. Trp(βS-Me,7-OMe) = COc1cccc2c([C@H](C)[C@H](N)C(=O)O)c[nH]c12; Phe(4-SO2NH2) = N[C@@H](Cc1ccc(S(N)(=O)=O)cc1)C(=O)O; Phe(2-F,4-COOH) = N[C@@H](Cc1ccc(C(=O)O)cc1F)C(=O)O; Trp(7-CN) = N#Cc1cccc2c(C[C@H](N)C(=O)O)c[nH]c12; Trp(7-Cl) = N[C@@H](Cc1c[nH]c2c(Cl)cccc12)C(=O)O; Ala(pyrimidin-5-yl) = N[C@@H](Cc1cncnc1)C(=O)O; Phe(3-CONH2) = NC(=O)c1cccc(C[C@H](N)C(=O)O)c1; Phe(4-CONH2) = NC(=O)c1ccc(C[C@H](N)C(=O)O)cc1; Phe(4-COOH) = N[C@@H](Cc1ccc(C(=O)O)cc1)C(=O)O; 4Pal(3S-Me) = C[C@@H](c1ccncc1)[C@H](N)C(=O)O; Trp(7-aza) = N[C@@H](Cc1c[nH]c2ncccc12)C(=O)O; Pip(5R-OH) = O=C(O)[C@@H]1CC[C@@H](O)CN1; αMeW = C[C@](N)(Cc1c[nH]c2ccccc12)C(=O)O; X1 = O=C([C@@H]1CC[C@H](N[*:1])C1)[*:2]; 4Pal = N[C@@H](Cc1ccncc1)C(=O)O; Gly(cBu) = N[C@H](C(=O)O)C1CCC1; NMeE = CN[C@@H](CCC(=O)O)C(=O)O; dHyp = O=C(O)[C@H]1C[C@H](O)CN1; Cit = NC(=O)NCCC[C@H](N)C(=O)O; Ahp(2) = CCCCC[C@H](N)C(=O)O; hSer = N[C@@H](CCO)C(=O)O; αMeS = C[C@](N)(CO)C(=O)O; Nle = CCCC[C@H](N)C(=O)O; Sar = CNCC(=O)O

The compounds below were run against T1, TNFα-induced NF-κB signal transduction pathway (TNFR1 signaling) in THP-1 cells (Homo sapiens, UniProt P19438) (assay: THP-1 Lucia NF-κB reporter cell assay, inhibition of TNFα-induced NF-κB signaling). Settings: THP-1 NF-κB Lucia reporter cells, 10 ng/mL TNFα, 16-18 h, secreted luciferase; read-out: THP-1 IC50.
T1 sequence (P19438 30-455): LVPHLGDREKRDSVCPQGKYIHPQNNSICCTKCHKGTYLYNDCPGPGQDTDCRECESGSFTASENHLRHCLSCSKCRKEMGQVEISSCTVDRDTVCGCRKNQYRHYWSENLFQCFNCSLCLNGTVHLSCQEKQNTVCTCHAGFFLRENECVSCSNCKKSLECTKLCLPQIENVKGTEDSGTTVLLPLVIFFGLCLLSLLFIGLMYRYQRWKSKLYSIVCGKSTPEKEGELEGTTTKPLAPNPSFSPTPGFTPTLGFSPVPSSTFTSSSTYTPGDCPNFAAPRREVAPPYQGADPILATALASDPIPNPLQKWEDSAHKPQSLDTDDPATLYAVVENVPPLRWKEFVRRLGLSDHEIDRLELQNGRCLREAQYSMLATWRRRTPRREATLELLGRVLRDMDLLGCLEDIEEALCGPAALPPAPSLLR
Format: cell-based
In short: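 THP-1 Lucia NF-κB cells, 20k/well, no selection antibiotics; peptide pre-inc 1 h 37 °C; + recombinant human TNFα 10 ng/mL final; o.n.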
In the case of CCCCC[C@@H]1NC(=O)[C@@H]2CC[C@@H](C2)NC(=O)[C@H]([C@@H](C)c2c[nH]c3c(OC)cccc23)NC(=O)CN(C)C(=O)[C@H](Cc2ccc(C(N)=O)cc2)NC(=O)[C@H](Cc2ccc(C(N)=O)cc2)NC(=O)[C@](C)(CO)NC(=O)[C@H](Cc2c[nH]c3c(C#N)cccc23)NC(=O)[C@H](Cc2ccc(C(=O)O)cc2)NC(=O)[C@H](CC(N)=O)NC(=O)[C@H]2C[C@H](O)CN2C(=O)[C@H](Cc2c[nH]c3ccccc23)NC(=O)[C@H](CCO)NC(=O)[C@H]([C@@H](C)c2ccncc2)NC1=O [SEQ ID NO. 50] (cyclo([Ahp(2)][4Pal(3S-Me)][hSer]W[dHyp]N[Phe(4-COOH)][Trp(7-CN)][αMeS][Phe(4-CONH2)][Phe(4-CONH2)][Sar][Trp(βS-Me,7-OMe)][X1])), the IC50 is reported as 900 pM. For CCCC[C@@H]1NC(=O)[C@@H]2CC[C@@H](C2)NC(=O)[C@H]([C@@H](C)c2c[nH]c3c(OC)cccc23)NC(=O)CN(C)C(=O)[C@H](Cc2ccc(C(=O)O)cc2F)NC(=O)[C@H](Cc2ccc(S(N)(=O)=O)cc2)NC(=O)[C@](C)(CO)NC(=O)[C@H](Cc2c[nH]c3c(C#N)cccc23)NC(=O)[C@H](Cc2ccc(C(=O)O)cc2F)NC(=O)[C@H](CC(N)=O)NC(=O)[C@H]2C[C@H](O)CN2C(=O)[C@H](Cc2c[nH]c3ncccc23)NC(=O)[C@@H]2CC[C@@H](O)CN2C(=O)[C@H](Cc2cncnc2)NC1=O [SEQ ID NO. 51] (cyclo(N[Phe(2-F,4-COOH)][Trp(7-CN)][αMeS][Phe(4-SO2NH2)][Phe(2-F,4-COOH)][Sar][Trp(βS-Me,7-OMe)][X1][Nle][Ala(pyrimidin-5-yl)][Pip(5R-OH)][Trp(7-aza)][dHyp])), the IC50 was 400 pM. For CCCC[C@@H]1NC(=O)[C@@H]2CC[C@@H](C2)NC(=O)[C@H]([C@@H](C)c2c[nH]c3c(OC)cccc23)NC(=O)CN(C)C(=O)[C@H](Cc2ccc(C(=O)O)cc2)NC(=O)[C@H](Cc2ccc(C(N)=O)cc2)NC(=O)[C@](C)(CO)NC(=O)[C@H](Cc2c[nH]c3c(Cl)cccc23)NC(=O)[C@H](Cc2ccncc2)NC(=O)[C@H](CC(N)=O)NC(=O)[C@H]2C[C@H](O)CN2C(=O)[C@H](Cc2c[nH]c3ccccc23)NC(=O)[C@@H]2CC[C@@H](O)CN2C(=O)[C@H](Cc2ccncc2)NC1=O [SEQ ID NO. 53] (cyclo([4Pal][Trp(7-Cl)][αMeS][Phe(4-CONH2)][Phe(4-COOH)][Sar][Trp(βS-Me,7-OMe)][X1][Nle][4Pal][Pip(5R-OH)]W[dHyp]N)), the IC50 was 600 pM. COc1cccc2c([C@H](C)[C@@H]3NC(=O)CN(C)C(=O)[C@H](Cc4cccc(C(N)=O)c4)NC(=O)[C@H](Cc4ccc(C(=O)O)cc4)NC(=O)[C@](C)(CO)NC(=O)[C@H](Cc4c[nH]c5c(Cl)cccc45)NC(=O)[C@H](Cc4ccncc4)NC(=O)[C@H](CC(N)=O)NC(=O)[C@H]4C[C@H](O)CN4C(=O)[C@H](Cc4c[nH]c5ccccc45)NC(=O)[C@@H]4CC[C@@H](O)CN4C(=O)[C@H](Cc4ccncc4)NC(=O)[C@H](CCCNC(N)=O)NC(=O)[C@@H]4CC[C@@H](C4)NC3=O)c[nH]c12 [SEQ ID NO. 54] (cyclo([4Pal][Trp(7-Cl)][αMeS][Phe(4-COOH)][Phe(3-CONH2)][Sar][Trp(βS-Me,7-OMe)][X1][Cit][4Pal][Pip(5R-OH)]W[dHyp]N)) showed an IC50 of 1800 pM. For CCCC[C@@H]1NC(=O)CSC[C@@H](C(N)=O)NC(=O)[C@](C)(Cc2c[nH]c3ccccc23)NC(=O)CN(C)C(=O)[C@H](Cc2ccc(O)cc2)NC(=O)[C@H](Cc2ccc(C(=O)O)cc2)NC(=O)[C@](C)(CO)NC(=O)[C@H](Cc2c[nH]c3c(Cl)cccc23)NC(=O)[C@H](Cc2ccncc2)NC(=O)[C@H](CC(N)=O)NC(=O)[C@H](CCC(=O)O)N(C)C(=O)[C@H](Cc2c[nH]c3ncccc23)NC(=O)[C@H](C2CCC2)NC(=O)[C@H](Cc2ccncc2)NC1=O [SEQ ID NO. 56] ({CH2CO}-[Nle][4Pal][Gly(cBu)][Trp(7-aza)][NMeE]N[4Pal][Trp(7-Cl)][αMeS][Phe(4-COOH)]Y[Sar][αMeW]C-NH2; thioether N-14), the IC50 was 11000 pM.
